# Read-outs that look alike come from different tables or passages of the source.
# Legend:
# [1] = target: human (hACC2) (Homo sapiens, UniProt O00763); experiment: In vitro ACC inhibition assay (ADP-Glo), hACC2; assay type: biochemical; conditions: 5 nM ACC2, 20 μM ATP, 20 μM acetyl-CoA
# Description: The detailed procedure is as follows. […] 10 μL ADP glo reagent was added. […] 20 μL kinase detection reagent was added.
# [2] = test system: C. krusei; experiment: Antifungal Activity Assay (broth microtiter MIC), C. krusei; assay type: cell-based, Candida krusei; conditions: Pichia kudriavzevii, ATCC6258, 48 h
# Outline: (§1)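 CLSI M27-A3 microdilution; RPMI 1640+MOPS; 2.5×10^3 CFU/mL final inoculum; cultures from Sabouraud dextrose agar, 35° C overnight; compound working solution 128 μg/mL from 1 mg/mL DMSO stock; visual MIC at 48 h vs growth control.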
# [3] = test system: C. parapsilosis; experiment: Antifungal Activity Assay (broth microtiter MIC), C. parapsilosis; assay type: cell-based, Candida parapsilosis; conditions: Lodderomyces parapsilosis, ATCC22019, 48 h
# Outline: as §1
# [4] = test system: Botrtyis cinerea (Bc); experiment: Growth inhibition assay of fungal pathogens, Bc; assay type: cell-based; conditions: 48 h
# Outline: (§2)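 Percent inhibition derived at 48 hours from OD600 and visual scores versus 2% DMSO control, with media+DMSO blank as background. Spore inocula in 17% V8 medium were sized from 48 h growth curves; compounds tested at final 50/10/2 or 2/0.4/0.08 ppm.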
# [5] = test system: Fusarium moniliforme (Fm); experiment: Growth inhibition assay of fungal pathogens, Fm; assay type: cell-based; conditions: for IC90: Fusarium verticillioides, 48 h, read-out: Concentration at 90% Inhibition Fm
# Outline: as §2
# [6] = test system: Fusarium virguliforme (Fv); experiment: Growth inhibition assay of fungal pathogens, Fv; assay type: cell-based; conditions: 48 h
# Outline: as §2
# [7] = test system: Phytophthora capsici (Pc); experiment: Growth inhibition assay of fungal pathogens, Pc; assay type: cell-based; conditions: 48 h
# Outline: as §2
# [8] = test system: Rhizoctonia solani (Rs); experiment: Growth inhibition assay of fungal pathogens, Rs; assay type: cell-based; conditions: 48 h
# [9] = test system: Septoria tritici (St); experiment: Growth inhibition assay of fungal pathogens, St; assay type: cell-based; conditions: Zymoseptoria tritici, 48 h
# Outline: as §2
# [10] = target: fungal (fACC2) (UniProt Q00955); conditions: read-out: fACC2 (in vitro ACC2 Inhibition Assay, IC50), ADP-Glo, 5 nM ACC2, 20 μM ATP, 20 μM acetyl-CoA
# [11] = Table 3a, ATCC 6258, 3 replicates, MIC recorded at 48 h, read-out: MIC, C. krusei ATCC 6258
# [12] = Table 3b (additional results), ATCC 6258, 3 replicates, MIC recorded at 48 h, read-out: MIC, C. krusei ATCC 6258
# [13] = Table 3a, ATCC 22019, 3 replicates, MIC recorded at 48 h, read-out: MIC, C. parapsilosis ATCC 22019
# [14] = Table 3b (additional results), ATCC 22019, 3 replicates, MIC recorded at 48 h, read-out: MIC, C. parapsilosis ATCC 22019
# [15] = Botrtyis cinerea, growth inhibition at 48 hours vs 2% DMSO control, read-out: Concentration at 90% Inhibition Bc
# [16] = Botrtyis cinerea, growth inhibition vs 2% DMSO control at 48 hours, read-out: Concentration at 90% Inhibition Bc
# [17] = Fusarium moniliforme, growth inhibition at 48 hours vs 2% DMSO control
# [18] = Fusarium moniliforme, growth inhibition vs 2% DMSO control at 48 hours
# [19] = growth inhibition at 48 hours vs 2% DMSO control, read-out: Concentration at 90% Inhibition Fv
# [20] = growth inhibition vs 2% DMSO control at 48 hours, read-out: Concentration at 90% Inhibition Fv
# [21] = growth inhibition at 48 hours vs 2% DMSO control, read-out: Concentration at 90% Inhibition Pc
# [22] = growth inhibition vs 2% DMSO control at 48 hours, read-out: Concentration at 90% Inhibition Pc
# [23] = mycelial plugs, growth inhibition at 48 hours vs 2% DMSO control, read-out: Concentration at 90% Inhibition Rs
# [24] = mycelial plugs, growth inhibition vs 2% DMSO control at 48 hours, read-out: Concentration at 90% Inhibition Rs
# [25] = Septoria tritici, growth inhibition at 48 hours vs 2% DMSO control, read-out: Concentration at 90% Inhibition St
# [26] = Septoria tritici, growth inhibition vs 2% DMSO control at 48 hours, read-out: Concentration at 90% Inhibition St
# Sequence of human (hACC2) (O00763 whole entry): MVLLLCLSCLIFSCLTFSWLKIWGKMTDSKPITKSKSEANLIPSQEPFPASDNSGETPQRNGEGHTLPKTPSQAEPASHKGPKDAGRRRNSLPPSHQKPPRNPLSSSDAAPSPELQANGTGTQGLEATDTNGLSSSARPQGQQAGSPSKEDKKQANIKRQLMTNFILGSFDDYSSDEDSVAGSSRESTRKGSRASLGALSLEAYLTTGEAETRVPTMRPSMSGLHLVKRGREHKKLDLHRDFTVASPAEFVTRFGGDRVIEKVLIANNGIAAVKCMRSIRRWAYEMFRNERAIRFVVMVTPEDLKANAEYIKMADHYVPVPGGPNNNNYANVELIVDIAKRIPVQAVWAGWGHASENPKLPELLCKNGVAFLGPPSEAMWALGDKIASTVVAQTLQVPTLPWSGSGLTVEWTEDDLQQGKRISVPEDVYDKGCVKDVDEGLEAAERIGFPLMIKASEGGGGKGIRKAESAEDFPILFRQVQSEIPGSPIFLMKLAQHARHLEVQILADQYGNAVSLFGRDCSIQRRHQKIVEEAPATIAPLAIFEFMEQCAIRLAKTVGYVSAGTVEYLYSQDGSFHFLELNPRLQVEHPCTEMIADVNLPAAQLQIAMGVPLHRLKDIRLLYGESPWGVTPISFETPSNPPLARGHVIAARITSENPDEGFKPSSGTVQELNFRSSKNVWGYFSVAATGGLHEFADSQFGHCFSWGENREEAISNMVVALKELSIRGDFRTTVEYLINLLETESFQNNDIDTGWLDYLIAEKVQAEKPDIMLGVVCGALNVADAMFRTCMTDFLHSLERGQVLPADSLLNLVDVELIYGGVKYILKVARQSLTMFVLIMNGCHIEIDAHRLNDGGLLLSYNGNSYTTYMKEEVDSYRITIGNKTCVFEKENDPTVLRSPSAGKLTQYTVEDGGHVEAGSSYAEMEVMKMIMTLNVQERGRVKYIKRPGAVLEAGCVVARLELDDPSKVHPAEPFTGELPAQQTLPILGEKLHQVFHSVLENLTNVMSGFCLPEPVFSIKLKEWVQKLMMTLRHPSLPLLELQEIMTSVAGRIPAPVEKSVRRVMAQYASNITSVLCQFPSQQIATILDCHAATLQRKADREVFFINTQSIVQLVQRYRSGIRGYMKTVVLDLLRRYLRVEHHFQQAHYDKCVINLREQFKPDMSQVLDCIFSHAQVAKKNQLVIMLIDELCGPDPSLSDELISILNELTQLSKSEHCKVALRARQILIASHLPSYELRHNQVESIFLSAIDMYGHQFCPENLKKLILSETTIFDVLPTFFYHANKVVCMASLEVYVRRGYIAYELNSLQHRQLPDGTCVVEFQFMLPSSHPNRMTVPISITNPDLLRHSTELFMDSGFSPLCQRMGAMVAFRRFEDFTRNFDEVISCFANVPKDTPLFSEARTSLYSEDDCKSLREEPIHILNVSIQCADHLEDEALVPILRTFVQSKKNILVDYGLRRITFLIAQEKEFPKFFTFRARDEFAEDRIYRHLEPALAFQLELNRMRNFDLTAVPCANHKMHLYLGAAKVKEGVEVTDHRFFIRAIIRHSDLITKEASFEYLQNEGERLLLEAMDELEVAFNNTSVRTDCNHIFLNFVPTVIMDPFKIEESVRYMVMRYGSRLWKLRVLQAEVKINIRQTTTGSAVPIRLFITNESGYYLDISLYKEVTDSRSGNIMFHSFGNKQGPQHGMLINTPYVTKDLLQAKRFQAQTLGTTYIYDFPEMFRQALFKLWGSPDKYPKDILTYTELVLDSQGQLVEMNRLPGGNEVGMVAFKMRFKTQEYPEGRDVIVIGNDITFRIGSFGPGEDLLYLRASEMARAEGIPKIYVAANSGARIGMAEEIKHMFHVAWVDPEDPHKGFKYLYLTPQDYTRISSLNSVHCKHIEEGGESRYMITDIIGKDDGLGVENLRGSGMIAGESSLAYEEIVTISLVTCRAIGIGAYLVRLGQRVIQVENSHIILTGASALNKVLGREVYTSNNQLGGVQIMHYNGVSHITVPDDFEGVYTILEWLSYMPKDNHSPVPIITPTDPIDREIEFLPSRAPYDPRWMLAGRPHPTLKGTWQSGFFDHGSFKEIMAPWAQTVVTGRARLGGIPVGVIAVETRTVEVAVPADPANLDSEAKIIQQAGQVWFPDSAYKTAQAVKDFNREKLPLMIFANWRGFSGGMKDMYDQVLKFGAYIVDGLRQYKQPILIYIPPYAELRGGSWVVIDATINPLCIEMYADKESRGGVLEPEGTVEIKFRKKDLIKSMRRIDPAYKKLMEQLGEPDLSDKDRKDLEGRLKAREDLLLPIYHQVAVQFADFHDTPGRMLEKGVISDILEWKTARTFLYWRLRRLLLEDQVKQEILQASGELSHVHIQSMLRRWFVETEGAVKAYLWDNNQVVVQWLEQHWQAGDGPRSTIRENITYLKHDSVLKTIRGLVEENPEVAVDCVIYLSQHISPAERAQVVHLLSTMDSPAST
# Sequence of fungal (fACC2) (Q00955 whole entry): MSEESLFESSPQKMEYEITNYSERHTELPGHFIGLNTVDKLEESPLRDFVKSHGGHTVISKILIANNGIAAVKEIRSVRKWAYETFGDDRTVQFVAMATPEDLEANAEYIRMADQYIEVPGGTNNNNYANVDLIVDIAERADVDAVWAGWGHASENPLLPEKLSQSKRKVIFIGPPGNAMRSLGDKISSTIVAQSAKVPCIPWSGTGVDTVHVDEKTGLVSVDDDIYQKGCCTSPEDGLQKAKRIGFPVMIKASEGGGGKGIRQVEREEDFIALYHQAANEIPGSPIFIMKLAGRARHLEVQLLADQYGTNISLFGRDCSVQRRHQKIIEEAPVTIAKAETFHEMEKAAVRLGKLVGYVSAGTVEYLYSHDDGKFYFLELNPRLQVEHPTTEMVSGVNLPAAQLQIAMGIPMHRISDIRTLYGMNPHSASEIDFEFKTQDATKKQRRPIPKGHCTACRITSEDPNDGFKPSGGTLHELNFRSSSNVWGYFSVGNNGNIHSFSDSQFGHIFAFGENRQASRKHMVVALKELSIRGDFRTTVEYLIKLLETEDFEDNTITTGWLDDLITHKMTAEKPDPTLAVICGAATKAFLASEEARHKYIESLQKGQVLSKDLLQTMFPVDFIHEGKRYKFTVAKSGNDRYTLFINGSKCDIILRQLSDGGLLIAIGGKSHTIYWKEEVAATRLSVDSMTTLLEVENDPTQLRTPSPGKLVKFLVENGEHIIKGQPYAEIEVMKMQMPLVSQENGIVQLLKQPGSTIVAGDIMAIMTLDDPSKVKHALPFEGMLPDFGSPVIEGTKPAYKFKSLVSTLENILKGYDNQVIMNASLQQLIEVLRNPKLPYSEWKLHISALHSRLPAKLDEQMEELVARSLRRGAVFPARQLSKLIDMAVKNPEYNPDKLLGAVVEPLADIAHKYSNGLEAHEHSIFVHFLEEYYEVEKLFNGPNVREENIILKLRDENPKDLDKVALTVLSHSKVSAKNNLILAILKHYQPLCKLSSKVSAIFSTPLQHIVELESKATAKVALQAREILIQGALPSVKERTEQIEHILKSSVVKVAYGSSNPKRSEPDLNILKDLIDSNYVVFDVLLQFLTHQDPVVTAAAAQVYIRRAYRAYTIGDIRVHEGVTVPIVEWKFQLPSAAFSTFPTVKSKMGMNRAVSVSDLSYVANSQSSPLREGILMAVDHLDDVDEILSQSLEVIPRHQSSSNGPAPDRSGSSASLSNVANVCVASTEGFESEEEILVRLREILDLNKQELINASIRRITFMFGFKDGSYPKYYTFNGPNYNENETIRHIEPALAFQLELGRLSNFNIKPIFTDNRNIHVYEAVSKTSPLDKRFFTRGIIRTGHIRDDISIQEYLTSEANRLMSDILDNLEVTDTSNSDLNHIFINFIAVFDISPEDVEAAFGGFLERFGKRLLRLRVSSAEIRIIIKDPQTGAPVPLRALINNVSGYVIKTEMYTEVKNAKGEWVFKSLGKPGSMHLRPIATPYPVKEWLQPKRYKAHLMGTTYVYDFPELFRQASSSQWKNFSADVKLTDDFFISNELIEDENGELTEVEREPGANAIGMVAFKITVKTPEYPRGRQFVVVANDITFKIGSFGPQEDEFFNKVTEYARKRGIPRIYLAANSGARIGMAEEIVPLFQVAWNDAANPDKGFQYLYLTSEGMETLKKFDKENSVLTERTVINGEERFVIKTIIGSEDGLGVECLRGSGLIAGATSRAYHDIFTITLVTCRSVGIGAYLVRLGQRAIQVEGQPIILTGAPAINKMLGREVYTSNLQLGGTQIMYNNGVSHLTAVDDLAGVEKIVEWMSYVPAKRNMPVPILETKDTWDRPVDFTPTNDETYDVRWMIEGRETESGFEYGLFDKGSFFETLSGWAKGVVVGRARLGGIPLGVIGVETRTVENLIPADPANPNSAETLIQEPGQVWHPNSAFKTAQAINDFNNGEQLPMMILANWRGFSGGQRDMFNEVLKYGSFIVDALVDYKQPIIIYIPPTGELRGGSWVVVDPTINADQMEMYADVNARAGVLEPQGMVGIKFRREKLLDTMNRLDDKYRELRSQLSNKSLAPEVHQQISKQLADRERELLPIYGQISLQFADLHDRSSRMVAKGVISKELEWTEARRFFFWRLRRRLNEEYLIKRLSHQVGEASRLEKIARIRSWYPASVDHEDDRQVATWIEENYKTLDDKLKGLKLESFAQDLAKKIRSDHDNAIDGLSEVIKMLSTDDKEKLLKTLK
SMILES,IC50 ([1]; Table 2a) [nM],"IC50 ([1]; Table 2b, additional results) [nM]","MIC [2, 11] [µg/mL]","MIC [2, 12] [µg/mL]","MIC [3, 13] [µg/mL]","MIC [3, 14] [µg/mL]","IC90 [4, 15] [µg/mL]","IC90 [4, 16] [µg/mL]","IC90 [5, 17] [µg/mL]","IC90 [5, 18] [µg/mL]","IC90 [6, 19] [µg/mL]","IC90 [6, 20] [µg/mL]","IC90 [7, 21] [µg/mL]","IC90 [7, 22] [µg/mL]","IC90 [8, 23] [µg/mL]","IC90 [8, 24] [µg/mL]","IC90 [9, 25] [µg/mL]","IC90 [9, 26] [µg/mL]",IC50 ([10]; Table 2a) [nM],"IC50 ([10]; Table 2b, additional results) [nM]",also measured
COc1ccc(F)cc1[C@H](Cn1c(=O)n(C(C)(C)C(N)=O)c(=O)c2c(C)c(-n3nccn3)sc21)OC1CCOCC1 [Compound I-1],5 to 10,5 to 10,0.25 to 1,0.25 to 1,1.1 to 2,2.01 to 4,2,2,0.4,0.4,2,2,10,> 50,2,10,> 50,> 50,1 to 5,1 to 5,
"COc1ccc(F)cc1[C@H](Cn1c(=O)n(C(C)(C)C(N)=O)c(=O)c2c(C)c(-n3nccn3)sc21)OC(C)C [Compound I-2, (R)-2-(1-(2-(5-fluoro-2-methoxyphenyl)-2-isopropoxyethyl)-5-methyl-2,4-dioxo-6-(2H-1,2,3-triazol-2-yl)-1,4-dihydrothieno[2,3-d]pyrimidin-3(2H)-yl)-2-methylpropanamide]",1 to 5,1 to 5,0.25 to 1,0.25 to 1,2.1 to 4,> 4.01,2,2,0.4,0.4,0.4,0.4,> 50,> 50,0.08,0.08,> 50,> 50,1 to 5,1 to 5,
"CCNC(=O)C(C)(C)n1c(=O)c2c(C)c(-n3nccn3)sc2n(C[C@H](OC(C)C)c2cc(F)ccc2OC)c1=O [Compound I-3, (R)—N-ethyl-2-(1-(2-(5-fluoro-2-methoxyphenyl)-2-isopropoxyethyl)-5-methyl-2,4-dioxo-6-(2H-1,2,3-triazol-2-yl)-1,4-dihydrothieno[2,3-d]pyrimidin-3(2H)-yl)-2-methylpropanamide]",5 to 10,5 to 10,,,,,,,,,,,,,,,,,1 to 5,1 to 5,"MIC ([2]; read-out: MIC, C. krusei ATCC 6258, Table 3a, 3 replicates, MIC recorded at 48 h): 0.25 to 1 µg/mL; MIC ([2]; read-out: MIC, C. krusei ATCC 6258, Table 3b (additional results), 3 replicates, MIC recorded at 48 h): 0.25 to 1 µg/mL; MIC ([3]; read-out: MIC, C. parapsilosis ATCC 22019, Table 3a, 3 replicates, MIC recorded at 48 h): 1.1 to 2 µg/mL; MIC ([3]; read-out: MIC, C. parapsilosis ATCC 22019, Table 3b (additional results), 3 replicates, MIC recorded at 48 h): 2.01 to 4 µg/mL; IC90 ([4]; read-out: Concentration at 90% Inhibition Bc, Botrtyis cinerea, growth inhibition at 48 hours vs 2% DMSO control): 0.4 µg/mL; IC90 ([4]; read-out: Concentration at 90% Inhibition Bc, Botrtyis cinerea, growth inhibition vs 2% DMSO control at 48 hours): 0.4 µg/mL; Concentration at 90% Inhibition Fm [5, 17]: AA (compound concentration of 0.08 ppm at 90% inhibition of fungal pathogens); IC90 [5]: 0.08 µg/mL; IC90 ([6]; read-out: Concentration at 90% Inhibition Fv, Fusarium virguliforme, growth inhibition at 48 hours vs 2% DMSO control): 0.4 µg/mL; IC90 ([6]; read-out: Concentration at 90% Inhibition Fv, Fusarium virguliforme, growth inhibition vs 2% DMSO control at 48 hours): 0.4 µg/mL; IC90 ([7]; read-out: Concentration at 90% Inhibition Pc, Phytophthora capsici, growth inhibition at 48 hours vs 2% DMSO control): > 50 µg/mL; IC90 ([7]; read-out: Concentration at 90% Inhibition Pc, Phytophthora capsici, growth inhibition vs 2% DMSO control at 48 hours): > 50 µg/mL; IC90 ([8]; read-out: Concentration at 90% Inhibition Rs, Rhizoctonia solani, mycelial plugs, growth inhibition at 48 hours vs 2% DMSO control): 0.08 µg/mL; IC90 ([8]; read-out: Concentration at 90% Inhibition Rs, Rhizoctonia solani, mycelial plugs, growth inhibition vs 2% DMSO control at 48 hours): 0.08 µg/mL; IC90 ([9]; read-out: Concentration at 90% Inhibition St, Septoria tritici, growth inhibition at 48 hours vs 2% DMSO control): 10 µg/mL; IC90 ([9]; read-out: Concentration at 90% Inhibition St, Septoria tritici, growth inhibition vs 2% DMSO control at 48 hours): > 50 µg/mL"

# Source: patent US10800791B2, “Triazole ACC inhibitors and uses thereof” (Gilead Apollo, LLC, priority 2015, dated 2020)
